Values quoted from earlier work, collected in patent US20170262578A1, “SYSTEM, METHOD AND SOFTWARE FOR ANALYSIS OF INTRACELLULAR SIGNALING PATHWAY ACTIVATION USING TRANSCRIPTOMIC DATA” (PATHWAY PHARMACEUTICALS LTD, priority 2015, published 2017).
Read-outs that look alike come from different tables or passages of the source.

Legend:
[1] = tested on: Advanced Renal Cell Carcinoma; conditions: for Median overall response duration: 11 / 19 / 20 participants; for Median progression free survival / Median time to treatment failure: 207 / 209 / 210 participants; for Median overall survival: 207 Interferon-α / 209 Temsirolimus / 210 combination participants; for Clinical benefit (complete, partial response or stable disease) / Complete or partial response: from 207 / 209 / 210 participants
[2] = tested on: Locally Advanced and/or Metastatic Renal Cell Carcinoma; conditions: 68 from 186 Pazopanib / 73 from 177 Sunitinib participants
[3] = tested on: Locally Advanced and/or Metastatic Renal Cell Carcinoma; conditions: 230 from 554 Pazopanib / 224 from 548 Sunitinib participants
[4] = tested on: Metastatic Renal Cell Cancer
[5] = tested on: Cytokine-Refractory Metastatic Renal Cell Carcinoma; conditions: 46 from 106 participants
[6] = tested on: Advanced (First-Line) Renal Cell Cancer; conditions: 45 of 119 participants
Renal Cell Carcinoma [7] = conditions: 28 from 51 participants
[8] = tested on: Cytokine-Refractory Metastatic Renal Cell Carcinoma
[9] = tested on: Metastatic Renal Cell Carcinoma (RCC)
[10] = tested on: Unresectable and/or Metastatic Renal Cell Carcinoma
[11] = tested on: Unresectable and/or Metastatic Renal Cell Cancer
[12] = tested on: Unresectable and/or Metastatic Renal Cell Carcinoma; remark: listed apart in the source
Renal Cell Carcinoma [13] = tested on: Renal Cell Carcinoma
[14] = tested on: Metastatic Renal Cell Cancer; conditions: for Serious adverse events: 108 from 359 Axitinib / 110 from 355 Sorafenib participants
[15] = tested on: Metastatic or Unresectable Renal Cell Cancer (RCC)
[16] = tested on: Metastatic Carcinoma of the Kidney Which Has Progressed on VEGF Receptor Tyrosine Kinase Inhibitor; conditions: with Best Supportive Care
[17] = tested on: unresectable or metastatic renal cell carcinoma
[18] = tested on: Locally Recurrent or Metastatic Clear-Cell Renal Cell Carcinoma; conditions: 74 from 225 participants
[19] = tested on: Locally Advanced and/or Metastatic Renal Cell Carcinoma; conditions: 76 from 290 participants
[20] = first intervention period, 5 / 8 participants
[21] = first intervention period, from 97 / 92 participants

CO[C@H]1C[C@@H]2CC[C@@H](C)[C@@](O)(O2)C(=O)C(=O)N2CCCC[C@H]2C(=O)O[C@H]([C@H](C)C[C@@H]2CC[C@@H](OC(=O)C(C)(CO)CO)[C@H](OC)C2)CC(=O)[C@H](C)/C=C(\C)[C@@H](O)[C@@H](OC)C(=O)[C@H](C)C[C@H](C)/C=C/C=C/C=C/1C [Temsirolimus]
Median overall response duration [1]: 11.1 months | Serious adverse events ([1]; 99 from 200 / 82 from 208 / 122 from 208 participants): 39.42% | Median progression free survival [1]: 5.6 months | Median time to treatment failure [1]: 3.7 months | Median overall survival [1]: 10.9 months | Clinical benefit (complete, partial response or stable disease) [1]: 34% | Complete or partial response [1]: 9.1%

CCN(CC)CCNC(=O)c1c(C)[nH]c(/C=C2\C(=O)Nc3ccc(F)cc32)c1C [Sunitinib]
Serious adverse events [2]: 41.24% | Serious adverse events [3]: 40.88% | Serious adverse events ([4]; Sunitinib 37.5 mg group, 54 from 143 participants): 37.76% | Serious adverse events ([4]; Sunitinib 50 mg group, 50 from 146 participants): 34.25% | Serious adverse events [5]: 43.40% | Serious adverse events [6]: 37.82% | Serious adverse events (Renal Cell Carcinoma [7]): 54.90% | Serious adverse events ([8]; AM dose group, out of 54 participants): 21 participants | Serious adverse events ([8]; PM dose group, from 53 participants): 20 participants

CNC(=O)c1cc(Oc2ccc(NC(=O)Nc3ccc(Cl)c(C(F)(F)F)c3)cc2)ccn1 [Sorafenib]
Serious adverse events ([9]; 4 from 47 participants): 8.51% | Duration of overall response (tumor burden reduction) ([9]; 14 participants): 7.1 months | Median overall survival ([9]; 47 participants): 16 months | Median time to progression ([9]; 47 participants): 4.4 months | Reduction in tumor burden equal to or larger than 5% ([9]; at 8 weeks (2 cycles of treatment), % from 47 participants): 30% | Median duration of response according to the Independent Radiological Review [10, 20]: 7.5 months | Median time to response according to the Independent Radiological Review [10, 20]: 1.8 months | Serious adverse events ([10]; first intervention period, 47 from 97 / 36 from 90 participants): 48.45% | partial response (Independent Central Review) [10, 21]: 5 participants | stable disease (Independent Central Review) [10, 21]: 72 participants | Median progression-free survival according to the Investigator Assessment ([10]; second intervention period): 4.5 months | Serious adverse events ([10]; second intervention period, 14 from 49 / 30 from 61 participants): 28.57% | stable disease (Investigator Assessment) ([10]; second intervention period, from 49 / 61 participants): 25 participants | Serious adverse events ([11]; 154 from 451 participants): 34.15% | Median progression free survival ([11]; 384 participants): 167 days | Median overall survival ([11]; 451 participants): 542 days | partial response ([11]; from 335 participants): 2.1% | stable disease ([11]; from 335 participants): 77.9% | Median overall response duration ([12]; 5 participants): 7.4 months | Median time to objective response ([12]; 5 participants): 1.4 months | Serious adverse events ([12]; 12 from 39 participants): 30.77% | Median overall survival ([12]; 39 participants): 7.8 months | Median progression free survival ([12]; 39 participants): 5.5 months | Median time to progression ([12]; 39 participants): 5.5 months | partial response ([12]; from 39 participants): 5 participants | progressive disease ([12]; from 39 participants): 6 participants | stable disease ([12]; from 39 participants): 27 participants | Serious adverse events (Renal Cell Carcinoma [13]; 34 of 95 participants): 35.79% | Median duration of overall response (Renal Cell Carcinoma [13]; 94 participants): 419 days | Median progression free survival (Renal Cell Carcinoma [13]; 94 participants): 386 days | Median time to response (Renal Cell Carcinoma [13]; 94 participants): 84 days | partial response (Renal Cell Carcinoma [13]; among 94 participants): 25 participants | stable disease (Renal Cell Carcinoma [13]; among 94 participants): 64 participants | Number of participants who died (Renal Cell Carcinoma [13]; from start of treatment of the first subject until 45 months later, from 94 participants): 43 participants | Serious adverse events [14]: 30.99% | Median progression free survival ([14]; 361 Axitinib / 362 Sorafenib participants): 4.7 months

Interferon-α
Median overall response duration [1]: 7.4 months | Median progression free survival [1]: 3.2 months | Median time to treatment failure [1]: 1.9 months | Median overall survival [1]: 7.3 months | Clinical benefit (complete, partial response or stable disease) [1]: 16.4% | Complete or partial response [1]: 5.3% | Serious adverse events ([1]; in vivo): 49.5%

CNC(=O)c1cc(Oc2ccc(NC(=O)Nc3ccc(Cl)c(C(F)(F)F)c3)c(F)c2)ccn1 [Regorafenib]
Median overall response duration ([15]; 19 participants): 428 days | Median duration of stable disease ([15]; 25 participants): 119 days | Serious adverse events ([15]; 30 from 49 participants): 61.22% | Median progression free survival ([15]; 49 participants): 335 days | partial response ([15]; among 48 participants): 39.6% | stable disease ([15]; among 48 participants): 41.7%

CO[C@H]1C[C@@H]2CC[C@@H](C)[C@@](O)(O2)C(=O)C(=O)N2CCCC[C@H]2C(=O)O[C@H]([C@H](C)C[C@@H]2CC[C@@H](OCCO)[C@H](OC)C2)CC(=O)[C@H](C)/C=C(\C)[C@@H](O)[C@@H](OC)C(=O)[C@H](C)C[C@H](C)/C=C/C=C/C=C/1C [RAD001, Everolimus]
Serious adverse events ([16]; 135 from 274 participants): 49.27% | Median overall survival ([16]; 277 participants): 13.57 months | Median progression free survival ([16]; 277 participants): 4.9 months | Complete or partial response ([16]; from 277 participants): 1.8%

CNC(=O)c1ccccc1Sc1ccc2c(/C=C/c3ccccn3)n[nH]c2c1 [Axitinib]
Serious adverse events [14]: 30.08%

CN1CC[C@H](c2c(O)cc(O)c3c(=O)cc(-c4ccccc4Cl)oc23)[C@H](O)C1 [Flavopiridol]
stable disease ([17]; 14 among 34 participants): 41% | CR+PR ([17]; 34 participants): 12% | Median overall survival ([17]; 34 participants): 9 months | probability of not failing treatment by 6 months ([17]; 34 participants): 21% | complete response ([17]; among 34 participants): 1 participants | partial response ([17]; among 34 participants): 3 participants | Toxicity of treatment ([17]; in vivo): moderate

Cc1ccc(Nc2nccc(N(C)c3ccc4c(C)n(C)nc4c3)n2)cc1S(N)(=O)=O [Pazopanib]
Serious adverse events [2]: 36.56% | Serious adverse events [3]: 41.52% | Serious adverse events [18]: 32.89% | Serious adverse events [19]: 26.21%
